Literature values in US12201725B2, “Dry powder compositions of treprostinil prodrugs and methods of use thereof” (Insmed Incorporated, priority 2019, dated 2025).
Where two headings read alike, the source gives them in different places.

Tests used:
[1] = guinea pigs, comparison, not tested in Example 6
[2] = tested on: hypoxia-induced increase in right ventricular pulse pressure (RVPP); conditions: inhaled, comparison, not tested in Example 5

Timing of cough ([1]; nebulized): ≤ 10 min
Threshold dose of inhaled TRE that causes cough [1]: 1.23 µg/kg
SMILES: CCCCC[C@H](O)CC[C@@H]1[C@H]2Cc3cccc(OCC(=O)O)c3C[C@H]2C[C@H]1O [treprostinil]
Duration of inhibition of the hypoxia-induced increase in RVPP ([2]; highest dose 215 μg/kg): 2 h
Duration of inhibition of the hypoxia-induced increase in RVPP ([2]; lower doses 15, 53, or 110 μg/kg): 1 h
